Data on three compounds can be found in patent publication EP4627105B1, “METHOD FOR IDENTIFYING A MODIFIED AMINO ACID DEGRON (MAAD)” (ETH Zurich, priority 2022, dated 2024).

Each structure is given as a SMILES string.

This experiment deals with K562 cells. As to the kind of experiment: Fluorescent in-cell reporter (FLICR) protein stability assay: turnover of C-terminally amidated sfGFP after nucleofection, followed by flow cytometry. The format is cell-based, human. Particulars: for destabilization of sfGFP carrying a primary amide on its C-terminus (sfGFP-Pep1-Ser-NH2): Fig. 1C, inhibitor concentration not given; for Amidated sfGFP degradation: Fig. 2G. The protocol: HEK293T cells were cultured in DMEM containing Glutamax (Thermo Fisher Scientific) and K562 cells were cultured in RPMI 1640 containing Glutamax (Thermo Fisher Scientific) under standard conditions. Growth media were further supplemented with 10% (v/v) Fetal Bovine Serum (Thermo Fisher Scientific) and 100 U/ml Penicillin-Streptomycin (Thermo Fisher Scientific). Stably transduced cells were selected using 2 µg/ml Puromycin (Thermo Fisher Scientific), 500 µg/ml Gene-ticin (Thermo Fisher Scientific) or 10 µg/ml Blasticidin (Thermo Fisher Scientific) starting two days after transduction. Induction of doxycycline-dependent vectors was performed using 500 ng/ml doxycycline (Merck) every 48 hours. Cells were treated with epoxomicin (Merck), concanamycin A (Merck) or TAK243 (MedChem Express) as indicated.
For measuring stability of recombinant or semi-synthetic proteins, 1.5- 2.0 x 10^5 cells were nucleofected with 200 pmol of protein in 20 µl cuvettes using a 4D nucleofector device (Lonza) according to the manufacturer's recommendations. Following protein delivery, cells were left to recover at 37°C for 30-45 minutes before measuring initial mean fluorescence intensity values (t0) on a Attune NxT Flow Cytometer (Thermo Fisher Scientific). Subsequent measurements were performed at indicated time points. Baseline-fluorescence values of mock nucleofected cells receiving no protein were measured and subtracted for each time point and baseline-corrected fluorescence values were normalized to t0.
The effect of each modification on protein degradation was measured in the human erythroleukemia cell line K562, which allows for efficient and uniform protein delivery via nucleofection.
Lastly, conjugates of mTagBFP2 and mCherry carrying a primary C-terminal amide were also efficiently degraded when delivered to human embryonic kidney-derived HEK293T cells (Fig.1D and Fig 1E) establishing that C-terminal amidation induces protein degradation in different amino acid-, protein- and cell contexts.
The effect of each modification on protein degradation in the human erythroleukemia cell line K562 was measured. A fluorescent in-cell reporter assay was performed, in which individual semi-synthetic proteins were introduced by electroporation into human cells and their clearance over time was followed by flow cytometry.
This implies that C-terminal amide-bearing proteins (CTAPs) are actively cleared from cells by the ubiquitin proteasome system. CTAP forms of both mCherry and mTagBFP2, but not their unmodified counterparts, were also efficiently degraded when delivered to human embryonic kidney-derived HEK293T cells, as shown in Fig. 2H (see also the explanations above relating to Fig. 1E). The presence of a C-terminal amide is therefore sufficient to induce protein degradation in different peptide-, protein- and cell contexts.
On the technique in general: In flow cytometry, cells or beads pass a laser one at a time.

For the compound `NS(=O)(=O)OC[C@H]1C[C@@H](Nc2ccnc3cc(-c4cccc(SC(F)(F)F)c4)nn23)[C@H](O)[C@@H]1O` [TAK243], the “destabilization of sfGFP carrying a primary amide on its C-terminus (sfGFP-Pep1-Ser-NH2)” value is recorded as “fully blunted”. In addition, the “Amidated sfGFP degradation” value (TAK243 (1 µM) upon sfGFP delivery) was “prevented”.
Turning to `C/C=C/[C@H]1O[C@@](O)([C@@H](C)[C@H](O)[C@H](C)[C@H]2OC(=O)/C(OC)=C/C(C)=C/[C@@H](C)[C@@H](O)[C@@H](CC)[C@@H](O)[C@H](C)C/C(C)=C/C=C/[C@@H]2OC)C[C@@H](O[C@H]2C[C@@H](O)[C@H](OC(N)=O)[C@@H](C)O2)[C@@H]1C` [concanamycin A], the “destabilization of sfGFP carrying a primary amide on its C-terminus (sfGFP-Pep1-Ser-NH2)” value is recorded as “not by inhibition of lysosomal acidification”. Moreover, for the setting “Folimycin (100 nM) upon sfGFP delivery”, the “Amidated sfGFP degradation” value is recorded as “not by inhibition of lysosomal acidification”.
For the compound `CC[C@H](C)[C@H](NC(=O)[C@H]([C@@H](C)CC)N(C)C(C)=O)C(=O)N[C@H](C(=O)N[C@@H](CC(C)C)C(=O)[C@@]1(C)CO1)[C@@H](C)O` [epoxomicin], the “destabilization of sfGFP carrying a primary amide on its C-terminus (sfGFP-Pep1-Ser-NH2)” value is “fully blunted”. Also, the “Amidated sfGFP degradation” value (epoxomicin (500 nM) upon sfGFP delivery) is listed as “prevented”.
